Converted amounts (≈) assume the structure as drawn. The source made the active and inactive calls. The rule behind the calls is not given here.
Experiments:
[1] = tested on: Human immunodeficiency virus 1; assay: Antiviral activity against HIV1 in human CEM-SS cells assessed as cytoprotection against virus-induced cytopathogenicity; format: functional
[2] = tested on: Human immunodeficiency virus 1; assay: Antiviral activity against HIV1 in human CEM-SS cells assessed inhibition of virus-induced cytopathic effects; format: functional, organism-based
[3] = Human immunodeficiency virus 1, CEM-SS

Row | SMILES | Activity [1] | Activity [2] | EC50 [2, 3] [µg/mL] | IC50 [2, 3] [µg/mL]
1 | CCOC(=O)NN(OC(=O)C[C@H](c1ccccc1)[C@@]12C(=O)[C@@](CC=C(C)C)(C[C@@H](CC=C(C)C)C1(C)C)C(=O)C(C(=O)CC(C)C)=C2O)C(=O)OCC | inactive | inactive |  | 
2 | CC(C)=CC[C@@H]1C[C@@]2(CC=C(C)C)C(=O)C(C(=O)CC(C)C)=C(O)[C@]([C@H](CC(=O)O)c3ccccc3)(C2=O)C1(C)C [LAXIFLORANONE] | 80% |  | 0.62 (≈ 1.1 µM) | 6.6 (≈ 11.7 µM)
